Experimental data: article PMC7649969, “Pyrazolyl-pyrimidones inhibit the function of human solute carrier protein SLC11A2 (hDMT1) by metal chelation” (RSC Medicinal Chemistry, 2020)
Entries after “also recorded” stand apart in the source; their conditions may differ. One block for each molecule: values may come before it.

Key:
hDMT1 = target: T1, hDMT1 (Homo sapiens, UniProt P49281); assay: two-electrode voltage-clamp electrophysiology of Fe2+ evoked currents in hDMT1-injected Xenopus oocytes; assay type: cell-based; settings: Fe2+ 20 μM
T1 sequence (P49281 1-568): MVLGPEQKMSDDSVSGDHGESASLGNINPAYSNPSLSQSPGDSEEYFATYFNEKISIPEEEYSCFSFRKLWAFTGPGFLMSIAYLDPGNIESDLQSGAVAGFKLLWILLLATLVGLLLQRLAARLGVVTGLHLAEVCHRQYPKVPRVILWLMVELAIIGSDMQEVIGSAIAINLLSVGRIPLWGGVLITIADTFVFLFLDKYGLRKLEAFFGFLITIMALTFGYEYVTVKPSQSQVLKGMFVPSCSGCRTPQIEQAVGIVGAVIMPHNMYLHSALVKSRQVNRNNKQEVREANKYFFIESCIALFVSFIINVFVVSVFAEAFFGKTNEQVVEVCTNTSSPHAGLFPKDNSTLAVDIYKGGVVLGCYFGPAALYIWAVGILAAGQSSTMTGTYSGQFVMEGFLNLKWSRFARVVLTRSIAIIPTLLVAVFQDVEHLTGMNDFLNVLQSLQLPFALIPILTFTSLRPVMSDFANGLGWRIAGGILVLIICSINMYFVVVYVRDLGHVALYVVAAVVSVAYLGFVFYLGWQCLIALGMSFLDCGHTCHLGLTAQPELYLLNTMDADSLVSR
Procedure: Fig. 3 Characterization of Fe^2+ transport inhibition by 1 and 13 in X. laevis oocytes (collected from frogs under license number BE60/18 conceded by the Veterinärdienst des Kantons BE, Sekretariat Tierversuche). (a) Upper panel: Average ^55Fe^2+-uptake (20 μM) by hDMT1-expressing and non-injected oocytes in the absence and the presence of the indicated compounds (10 μM). Data was normalized to ^55Fe^2+-uptake (pmol min^–1) in the absence of compounds represented as mean ± SD (16–29 oocytes). Lower panel: Net uptake of ^55Fe^2+ (20 μM) by hDMT1 in the absence and the presence of the indicated compounds (10 μM). For each batch of oocytes, uptake values were corrected for unspecific iron uptake in non-injected oocytes. Data were normalized to the mean iron uptake by hDMT1 WT (pmol min^–1) and represented as mean ± SD (14–34 oocytes). (b and c) Electrophysiology. […] For each trace, recorded currents were corrected for the background currents observed without substrate. (b) Representative traces recorded with hDMT1 injected oocytes (upper panel) and non-injected oocytes (lower panel). […] Statistical differences were assessed using T-test or Mann–Whitney U test (Fe^2+-uptake by hDMT1 WT vs. non-injected oocytes or vs. compound); p > 0.05 = ns; p < 0.001 = ***.
250 µM non-radioactive Fe2+ and 100 µM Ascorbic acid. Next, oocytes were solubilized with SDS 10% and 55Fe2+ content was determined by scintillation counting. To determine the total activity of the hDMT1-expressing oocytes, uptake of 55Fe2+ was determined also in the absence of any compound. […]
Electrophysiology methods. […] Then, the membrane voltage was held at -50 mV (Vh), and the current (nA) required to keep Vh constant was recorded along the experiments. These currents were measured with an OC-725 amplifier (Warner Instruments), low-pass filtered at 500 Hz, digitized at 5 kHz with a Digidata 1440 data acquisition system and captured using pClamp 10 software (Axon Instruments). […]

[1] = solubility noted at HPLC purity determination; assay type: physicochemical
Procedure: Table S3: Purity of the final compounds.
Compound Retention time Purity [%] HPLC
aMethod A: in 2.2 min from 100 % A to 10 0% D, then staying at 100 % D. Method B: in 7.5 min from 10 0% A to 100 % D,

[2] = isothermal titration calorimetry with Cd2+; assay type: binding; settings: pH 7.4, 25 °C, read-out: apparent dissociation constant KD
[3] = calcein quenching (competition) assay to detect Fe2+ chelation; settings: pH 5.5, 2 μM Fe2+, 1 μM calcein

- IC50 (hDMT1; currents at -70 mV, dose-response 0.01-10 μM, read-out: IC50 of inhibition of Fe2+ evoked currents): 0.14 µM
SMILES: N=C(N)SCc1cccc2c1oc1c(CSC(=N)N)cccc12 [Compound 1, reference compound]

- solubility in water and acetonitrile [1]: not soluble in water and acetonitrile
SMILES: Cc1nn(-c2ccccn2)c(O)c1C(=O)Nc1cccc(C(F)(F)F)c1 [Compound 3, reference compound]

- IC50 of inhibition of Fe2+ evoked currents (hDMT1; currents at -70 mV, dose-response 0.01-10 μM): did not fit to the equation
- Kd [2]: 6.4 µM
SMILES: Cc1cc(=O)[nH]c(-n2nc3c(c2C)CCCC3)n1 [Compound 13]
- effect on hDMT1-induced currents (hDMT1; compound up to 10 μM): no measurable effect on the recorded currents; also recorded: did not modulate hDMT1-induced currents
- iron chelation in calcein competition assay [3]: significant level of iron chelation
